Reference: patent US20260027116A1, “Methods of Treating Chronic Graft-Versus-Host Disease Following Allogeneic Hematopoietic Stem Cell Transplantation” (Kadmon Corporation, LLC, priority 2022, published 2026)

System: patients with cGVHD
Details: Cohort 2 200 mg BID

Q: What does the source list for `CC(C)NC(=O)COc1cccc(-c2nc(Nc3ccc4[nH]ncc4c3)c3ccccc3n2)c1` [Belumosudil, 2-{3-[4-(1H-indazol-5-ylamino)-2-quinazolinyl]phenoxy}-N-(propan-2-yl) acetamide]?
A: Macular degeneration: Affected/At Risk (%): 1/16 (6.25%); Migraine: # Events: 1; Migraine: Affected/At Risk (%): 1/16 (6.25%); Muscle spasms: # Events: 0; Muscle spasms: Affected/At Risk (%): 0/16 (0%); Muscle spasticity: # Events: 0; Muscle spasticity: Affected/At Risk (%): 0/16 (0%); Muscular weakness: # Events: 1; Muscular weakness: Affected/At Risk (%): 1/16 (6.25%); Musculoskeletal chest pain: # Events: 0; Musculoskeletal chest pain: Affected/At Risk (%): 0/16 (0%); Myalgia: # Events: 1; Myalgia: Affected/At Risk (%): 1/16 (6.25%); Nail disorder: # Events: 0; Nail disorder: Affected/At Risk (%): 0/16 (0%); Nasal congestion: Affected/At Risk (%): 0/16 (0%); Nausea: # Events: 6; Nausea: Affected/At Risk (%): 4/16 (25%); Neck pain: # Events: 0; Neck pain: Affected/At Risk (%): 0/16 (0%); Nephrotic syndrome: # Events: 1; Nephrotic syndrome: Affected/At Risk (%): 1/16 (6.25%); Neuropathy peripheral: # Events: 1; Neuropathy peripheral: Affected/At Risk (%): 1/16 (6.25%); Neutrophil count decreased: # Events: 0; Neutrophil count decreased: Affected/At Risk (%): 0/16 (0%); Nocturia: # Events: 0; Nocturia: Affected/At Risk (%): 0/16 (0%); Non-cardiac chest pain: # Events: 3; Non-cardiac chest pain: Affected/At Risk (%): 3/16 (18.75%); Obesity: # Events: 0; Obesity: Affected/At Risk (%): 0/16 (0%); Oedema peripheral: # Events: 5; Oedema peripheral: Affected/At Risk (%): 4/16 (25%); Oedema: # Events: 1; Oedema: Affected/At Risk (%): 1/16 (6.25%); Oesophageal ulcer: # Events: 1; Oesophageal ulcer: Affected/At Risk (%): 1/16 (6.25%); Oral candidiasis: # Events: 1; Oral candidiasis: Affected/At Risk (%): 1/16 (6.25%); Oropharyngeal pain: # Events: 0; Oropharyngeal pain: Affected/At Risk (%): 0/16 (0%); Orthopnoea: # Events: 0; Orthopnoea: Affected/At Risk (%): 0/16 (0%); Osteonecrosis: # Events: 0; Osteonecrosis: Affected/At Risk (%): 0/16 (0%); Osteopenia: # Events: 1; Osteopenia: Affected/At Risk (%): 1/16 (6.25%); Osteoporosis: # Events: 1; Osteoporosis: Affected/At Risk (%): 1/16 (6.25%); Overdose: # Events: 0; Overdose: Affected/At Risk (%): 0/16 (0%); Pain in extremity: # Events: 3; Pain in extremity: Affected/At Risk (%): 2/16 (12.5%); Pain: # Events: 0; Pain: Affected/At Risk (%): 0/16 (0%); Palpitations: # Events: 0; Palpitations: Affected/At Risk (%): 0/16 (0%); Paraesthesia: # Events: 1; Paraesthesia: Affected/At Risk (%): 1/16 (6.25%); Pericardial effusion: # Events: 0; Pericardial effusion: Affected/At Risk (%): 0/16 (0%); Peripheral coldness: # Events: 0; Peripheral coldness: Affected/At Risk (%): 0/16 (0%); Peripheral sensory neuropathy: # Events: 1; Peripheral sensory neuropathy: Affected/At Risk (%): 1/16 (6.25%); Phlebitis: # Events: 1; Phlebitis: Affected/At Risk (%): 1/16 (6.25%); Photophobia: # Events: 1; Photophobia: Affected/At Risk (%): 1/16 (6.25%); Platelet count decreased: # Events: 0; Platelet count decreased: Affected/At Risk (%): 0/16 (0%); Pleural effusion: # Events: 0; Pleural effusion: Affected/At Risk (%): 0/16 (0%); Pneumonia respiratory syncytial viral: # Events: 1; Pneumonia respiratory syncytial viral: Affected/At Risk (%): 1/16 (6.25%); Pneumonia: # Events: 3; Pneumonia: Affected/At Risk (%): 3/16 (18.75%); Pollakiuria: # Events: 0; Pollakiuria: Affected/At Risk (%): 0/16 (0%); Presyncope: # Events: 3; Presyncope: Affected/At Risk (%): 3/16 (18.75%); Productive cough: # Events: 7; Productive cough: Affected/At Risk (%): 2/16 (12.5%); Proteinuria: # Events: 1; Proteinuria: Affected/At Risk (%): 1/16 (6.25%); Pruritus: # Events: 4; Pruritus: Affected/At Risk (%): 2/16 (12.5%); Pseudomonas infection: # Events: 2; Pseudomonas infection: Affected/At Risk (%): 1/16 (6.25%); Pulmonary mass: # Events: 1; Pulmonary mass: Affected/At Risk (%): 1/16 (6.25%); Pyrexia: # Events: 6; Pyrexia: Affected/At Risk (%): 3/16 (18.75%); Rash erythematous: # Events: 1; Rash erythematous: Affected/At Risk (%): 1/16 (6.25%); Rash maculo-papular: # Events: 0; Rash maculo-papular: Affected/At Risk (%): 0/16 (0%); Rash pustular: # Events: 1; Rash pustular: Affected/At Risk (%): 1/16 (6.25%); Rash: # Events: 1; Rash: Affected/At Risk (%): 1/16 (6.25%); Red blood cells urine positive: # Events: 1; Red blood cells urine positive: Affected/At Risk (%): 1/16 (6.25%); Renal failure: # Events: 1; Renal failure: Affected/At Risk (%): 1/16 (6.25%); Respiratory syncytial virus infection: # Events: 1; Respiratory syncytial virus infection: Affected/At Risk (%): 1/16 (6.25%); Respiratory tract infection fungal: # Events: 0; Respiratory tract infection fungal: Affected/At Risk (%): 0/16 (0%); Respiratory tract infection: # Events: 0; Respiratory tract infection: Affected/At Risk (%): 0/16 (0%); Restless legs syndrome: # Events: 1; Restless legs syndrome: Affected/At Risk (%): 1/16 (6.25%); Rosacea: # Events: 1; Rosacea: Affected/At Risk (%): 1/16 (6.25%); SAE, No. (%): 6 (38); Sinus pain: # Events: 0; Sinus pain: Affected/At Risk (%): 0/16 (0%); Sinusitis: # Events: 4; Sinusitis: Affected/At Risk (%): 2/16 (12.5%); Skin abrasion: # Events: 0; Skin abrasion: Affected/At Risk (%): 0/16 (0%); Skin lesion: # Events: 1; Skin lesion: Affected/At Risk (%): 1/16 (6.25%); Skin papilloma: # Events: 0; Skin papilloma: Affected/At Risk (%): 0/16 (0%); Spinal compression fracture: # Events: 0; Spinal compression fracture: Affected/At Risk (%): 0/16 (0%); Squamous cell carcinoma of skin: # Events: 2; Squamous cell carcinoma of skin: Affected/At Risk (%): 2/16 (12.5%); Stomatitis: # Events: 1; Stomatitis: Affected/At Risk (%): 1/16 (6.25%); Superior vena cava syndrome: # Events: 2; Superior vena cava syndrome: Affected/At Risk (%): 1/16 (6.25%); TEAE, participants (%): 16 (100%) participants; TESAE, participants (%): 6 (38%) participants; Tachycardia: # Events: 0; Tachycardia: Affected/At Risk (%): 0/16 (0%); Tendonitis: # Events: 1; Tendonitis: Affected/At Risk (%): 1/16 (6.25%); Testicular pain: # Events: 0; Testicular pain: Affected/At Risk (%): 0/16 (0%); Testicular swelling: # Events: 0; Testicular swelling: Affected/At Risk (%): 0/16 (0%); Thoracic spinal stenosis: # Events: 0; Thoracic spinal stenosis: Affected/At Risk (%): 0/16 (0%); Thrombocytopenia: # Events: 1; Thrombocytopenia: Affected/At Risk (%): 1/16 (6.25%); Thrombocytosis: # Events: 0; Thrombocytosis: Affected/At Risk (%): 0/16 (0%); Tinea pedis: # Events: 1; Tinea pedis: Affected/At Risk (%): 1/16 (6.25%); Tooth fracture: # Events: 1; Tooth fracture: Affected/At Risk (%): 1/16 (6.25%); Total other adverse events: Affected/At Risk (%): 16/16 (100%); Transfusion reaction: # Events: 0; Transfusion reaction: Affected/At Risk (%): 0/16 (0%); Tremor: # Events: 2; Tremor: Affected/At Risk (%): 1/16 (6.25%); Type 2 diabetes mellitus: # Events: 0; Type 2 diabetes mellitus: Affected/At Risk (%): 0/16 (0%); Ulcerative keratitis: # Events: 1; Ulcerative keratitis: Affected/At Risk (%): 1/16 (6.25%); Upper respiratory tract infection: # Events: 13; Upper respiratory tract infection: Affected/At Risk (%): 9/16 (56.25%); Upper-airway cough syndrome: # Events: 2; Upper-airway cough syndrome: Affected/At Risk (%): 2/16 (12.5%); Urinary retention: # Events: 2
